pIC50: −log10 of the molar value. Read-outs that look alike come from different tables or passages of the source. Positions of bridges follow the written chain, without caps; N, C: chain ends. Non-standard residues stand in square brackets, D forms with d. Residues, ends and D or L forms follow the SMILES beside them. Groups on a side chain read outwards from the residue. *: point of attachment. Trp(7-Me) = Cc1cccc2c(C[C@H](N)C(=O)O)c[nH]c12; 2Nal = N[C@@H](Cc1ccc2ccccc2c1)C(=O)O; AEF = NCCOc1ccc(C[C@H](N)C(=O)O)cc1; dNMeY = CN[C@H](Cc1ccc(O)cc1)C(=O)O; PEG6 = NCCOCCOCCOCCOCCOCCOCCC(=O)O; 3Pal = N[C@@H](Cc1cccnc1)C(=O)O; Cit = NC(=O)NCCC[C@H](N)C(=O)O; Lys(Me) = CNCCCC[C@H](N)C(=O)O; αMeL = CC(C)C[C@](C)(N)C(=O)O; Pen = CC(C)(S)[C@H](N)C(=O)O; Thp = NC1(C(=O)O)CCOCC1; Sar = CNCC(=O)O; X2 = CNCC*
How the values were obtained:
IL-23R = molecular target: T1, IL-23R (Homo sapiens, UniProt Q5VWK5); experiment: IL23R Reporter Assay; assay type: cell-based; settings: HEK293 cells containing IL-23R, IL-12RP1 and STAT-inducible firefly luciferase reporter; 10 ng/mL IL-23 (EC90); 5 h at 37° C.; read-out: IL23R Reporter Assay
T1 construct: host or cells: HEK293
T1 sequence (Q5VWK5 24-629): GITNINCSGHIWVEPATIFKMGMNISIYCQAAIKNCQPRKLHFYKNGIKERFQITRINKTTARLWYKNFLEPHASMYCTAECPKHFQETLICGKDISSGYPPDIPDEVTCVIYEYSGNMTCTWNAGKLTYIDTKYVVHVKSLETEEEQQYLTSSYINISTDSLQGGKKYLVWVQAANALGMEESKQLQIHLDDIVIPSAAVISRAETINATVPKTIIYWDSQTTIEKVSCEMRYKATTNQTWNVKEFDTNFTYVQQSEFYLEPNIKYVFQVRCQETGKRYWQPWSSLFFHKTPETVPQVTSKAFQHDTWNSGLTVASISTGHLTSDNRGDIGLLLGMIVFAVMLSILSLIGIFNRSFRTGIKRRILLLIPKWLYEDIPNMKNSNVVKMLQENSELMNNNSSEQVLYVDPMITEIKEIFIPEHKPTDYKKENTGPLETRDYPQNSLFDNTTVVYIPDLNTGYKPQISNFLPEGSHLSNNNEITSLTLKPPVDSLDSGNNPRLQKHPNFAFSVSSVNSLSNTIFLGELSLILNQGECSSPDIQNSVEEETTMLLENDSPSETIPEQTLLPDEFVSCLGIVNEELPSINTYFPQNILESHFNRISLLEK

[1] = Exposed Polar Surface Area (EPSA); assay type: physicochemical; settings: SFC on Chirex 3014 column, sample 1 mM DMSO stock
Outline: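 EPSA, in Å^2, is read from SFC retention time through a linear relationship established with eight calibration standards. Separation uses a Chirex 3014 stationary phase, 35 °C, 14 MPa back pressure, and a 5–60% methanol/ammonium formate modifier gradient in CO2.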

| SMILES | pIC50 (IL-23R) | EPSA ([1]; read-out: EPSA) [A^2] | EPSA [1] [Å^2] | EPSA ([1]; listed as 2) [Å^2] |
| --- | --- | --- | --- | --- |
| CC(=O)N[C@@H]1C(=O)N[C@@H](CC(=O)N(C)C)C(=O)N[C@@H]([C@@H](C)O)C(=O)N[C@@H](Cc2c[nH]c3c(C)cccc23)C(=O)N[C@H](COCCOCC[N+](C)(C)C)C(=O)N[C@H](C(=O)N[C@@H](Cc2ccc(OCCOCCOCC[N+](C)(C)C)cc2)C(=O)N[C@@H](Cc2ccc3ccccc3c2)C(=O)NC2(C(=O)N[C@@H](COCCOCC[N+](C)(C)C)C(=O)N[C@@H](CC(N)=O)C(=O)N[C@@H](Cc3cccnc3)C(=O)N(C)CC(=O)N(C)C)CCOCC2)C(C)(C)SSC1(C)C (relative stereo) [compound 255, MeCO-Pen(3)-N(N(Me)2)-T-7MeW-APEG2Ser(R*)-Pen(3)-APEG3F-2Nal-THP-APEG2Ser(S*)-N-3Pya-Sar-CON(Me)2] | 7.66 | 141 | – | – |
| CC(=O)N[C@@H]1C(=O)N[C@@H](CC(=O)N(C)C)C(=O)N[C@@H]([C@@H](C)O)C(=O)N[C@@H](Cc2c[nH]c3c(C)cccc23)C(=O)N[C@H](COCCOCC[N+](C)(C)C)C(=O)N[C@H](C(=O)N[C@@H](Cc2ccc(OCCOCCOCC[N+](C)(C)C)cc2)C(=O)N[C@@H](Cc2ccc3ccccc3c2)C(=O)NC2(C(=O)N[C@@H](CCCCN(C)C(C)=O)C(=O)N[C@@H](CC(N)=O)C(=O)N[C@@H](Cc3cccnc3)C(=O)N(C)CC(=O)N(C)C)CCOCC2)C(C)(C)SSC1(C)C (relative stereo) [compound 268, MeCO-Pen(3)-N(N(Me)2)-T-7MeW-APEG2Ser(R*)-Pen(3)-APEG3F-2Nal-THP-K(NMeAc)-N-3Pya-Sar-CON(Me)2] | 6.96 | 148 | – | – |
| CC(=O)N[C@@H](COCCOCC[N+](C)(C)C)C(=O)N[C@@H]1C(=O)N[C@@H](CC(=O)N(C)C)C(=O)N[C@@H]([C@@H](C)O)C(=O)N[C@@H](Cc2c[nH]c3c(C)cccc23)C(=O)N[C@@H](CCCCN(C)C(C)=O)C(=O)N[C@H](C(=O)N[C@@H](Cc2ccc(OCCOCCOCC[N+](C)(C)C)cc2)C(=O)N[C@@H](Cc2ccc3ccccc3c2)C(=O)NC2(C(=O)N[C@@H](CCCCN(C)C(C)=O)C(=O)N[C@@H](CC(N)=O)C(=O)N[C@@H](Cc3cccnc3)C(=O)N(C)CC(=O)N(C)C)CCOCC2)C(C)(C)SSC1(C)C (relative stereo) [compound 318, MeCO-APEG2Ser(S*)-Pen(3)-N(N(Me)2)-T-7MeW-K(NMeAc)-Pen(3)-APEG3F-2Nal-THP-K(NMeAc)-N-3Pya-Sar-CON(Me)2] | 9.05 | 151 | – | – |
| CC(=O)NC(COCCOCC[N+](C)(C)C)C(=O)N[C@@H]1C(=O)N[C@@H](CC(=O)N(C)C)C(=O)N[C@@H]([C@@H](C)O)C(=O)N[C@@H](Cc2c[nH]c3c(C)cccc23)C(=O)N[C@@H](CCCCN(C)C(C)=O)C(=O)N[C@H](C(=O)N[C@@H](Cc2ccc(OCCOCCOCC[N+](C)(C)C)cc2)C(=O)N[C@@H](Cc2ccc3ccccc3c2)C(=O)NC2(C(=O)N[C@@H](CCCCN(C)C(C)=O)C(=O)N[C@@H](CC(N)=O)C(=O)N[C@@H](Cc3cccnc3)C(=O)N(C)CC(=O)N(C)C)CCOCC2)C(C)(C)SSC1(C)C (relative stereo) [compound 319, MeCO-APEG2Ser(R*)-Pen(3)-N(N(Me)2)-T-7MeW-K(NMeAc)-Pen(3)-APEG3F-2Nal-THP-K(NMeAc)-N-3Pya-Sar-CON(Me)2] | 8.74 | 151 | – | – |
| CC(=O)N(C)CCCC[C@@H]1NC(=O)[C@H](Cc2c[nH]c3c(C)cccc23)NC(=O)[C@H]([C@@H](C)O)NC(=O)[C@H](CC(=O)N(C)C)NC(=O)[C@@H](NC(=O)CCOCCOCC[N+](C)(C)C)C(C)(C)SSC(C)(C)[C@@H](C(=O)N[C@@H](Cc2ccc(OCCN)cc2)C(=O)N[C@@H](Cc2ccc3ccccc3c2)C(=O)NC2(C(=O)N[C@@H](CCN(C)C(C)=O)C(=O)N[C@@H](CC(N)=O)C(=O)N[C@@H](Cc3cccnc3)C(=O)N(C)CC(=O)N(C)C)CCC(F)(F)C2)NC1=O (single isomer, unassigned) [compound 179, cPEG3aCO-Pen(3)-N(N(Me)2)-T-7MeW-K(NMeAc)-Pen(3)-AEF-2Nal-diFCpx-Dab(NMeAc)-N-3Pya-Sar-CON(Me)2] | 8.52 | 147 | – | – |
| CC(=O)NCCCC[C@@H]1NC(=O)[C@H](Cc2c[nH]c3c(C)cccc23)NC(=O)[C@H]([C@@H](C)O)NC(=O)[C@H](CC(N)=O)NC(=O)[C@@H](NC(C)=O)C(C)(C)SSC(C)(C)[C@@H](C(=O)N[C@@H](Cc2ccc(OCC3CCC([N+](C)(C)C)CC3)cc2)C(=O)N[C@@H](Cc2ccc3ccccc3c2)C(=O)NC2(C(=O)N[C@@H](CCCCNC(C)=O)C(=O)N[C@@H](CC(N)=O)C(=O)N[C@@H](Cc3cccnc3)C(=O)N(C)CC(N)=O)CCOCC2)NC1=O (single isomer, unassigned) [compound 531, MeCO-Pen(3)-N-T-7MeW-K(Ac)-Pen(3)-ACHMF(R*, S*)-2Nal-THP-K(Ac)-N-3Pya-Sar-CONH2] | 8.43 | – | 165.96 | – |
| CNCCOc1ccc(C[C@H](NC(=O)[C@H]2NC(=O)[C@H](CCCCN(C)C(C)=O)NC(=O)[C@H](Cc3c[nH]c4c(C)cccc34)NC(=O)[C@H]([C@@H](C)O)NC(=O)[C@H](CC(=O)NC)NC(=O)[C@@H](NC(C)=O)C(C)(C)SSC2(C)C)C(=O)N[C@@H](Cc2ccc3ccccc3c2)C(=O)NC2(C(=O)N[C@@H](CCCCN(C)C(C)=O)C(=O)N[C@@H](CC(N)=O)C(=O)N[C@@H](Cc3cccnc3)C(=O)N(C)CC(=O)NC)CCOCC2)cc1 [SEQ ID 67] (Ac-[Pen]D(NHMe)T[Trp(7-Me)][Lys(Me)](Ac)[Pen]Y(X2)[2Nal][Thp][Lys(Me)](Ac)N[3Pal][Sar]-NHMe; disulfide 1-6 (inferred)) | 5.98 | 150 | – | 184 |
| CC(=O)N[C@H](CCCNC(=N)N)C(=O)N[C@@H]1C(=O)N[C@@H](CC(N)=O)C(=O)N[C@@H]([C@@H](C)O)C(=O)N[C@@H](Cc2c[nH]c3c(C)cccc23)C(=O)N[C@@H](CCCNC(N)=O)C(=O)N[C@H](C(=O)N[C@@H](Cc2ccc(OCCN)cc2)C(=O)N[C@@H](Cc2ccc3ccccc3c2)C(=O)N[C@@](C)(CC(C)C)C(=O)N[C@@H](CCC(=O)O)C(=O)N[C@@H](CC(N)=O)C(=O)N[C@H](CCCCN)C(=O)N(C)[C@H](Cc2ccc(O)cc2)C(N)=O)C(C)(C)SSC1(C)C [compound 16, MeCO-r-Pen(3)-N-T-7MeW-Cit-Pen(3)-AEF-2Nal-aMeL-E-N-k-NMeDTyr-CONH2] (Ac-[dR][Pen]NT[Trp(7-Me)][Cit][Pen][AEF][2Nal][αMeL]EN[dK][dNMeY]-NH2; disulfide 2-7) | 7.62 | 180 | – | – |
| CC(=O)N[C@H](CCCNC(=N)N)C(=O)N[C@@H]1C(=O)N[C@@H](CC(N)=O)C(=O)N[C@@H]([C@@H](C)O)C(=O)N[C@@H](Cc2c[nH]c3c(C)cccc23)C(=O)N[C@@H](CCCNC(N)=O)C(=O)N[C@H](C(=O)N[C@@H](Cc2ccc(OCCN)cc2)C(=O)N[C@@H](Cc2ccc3ccccc3c2)C(=O)N[C@@](C)(CC(C)C)C(=O)N[C@@H](CCC(=O)O)C(=O)N[C@@H](CC(N)=O)C(=O)N[C@H](Cc2c[nH]cn2)C(=O)N(C)[C@H](Cc2ccc(O)cc2)C(N)=O)C(C)(C)SSC1(C)C [compound 17, MeCO-r-Pen(3)-N-T-7MeW-Cit-Pen(3)-AEF-2Nal-aMeL-E-N-h-NMeDTyr-CONH2] (Ac-[dR][Pen]NT[Trp(7-Me)][Cit][Pen][AEF][2Nal][αMeL]EN[dH][dNMeY]-NH2; disulfide 2-7) | 7.42 | 186 | – | – |
| CC(=O)NCCCC[C@@H]1NC(=O)[C@H](Cc2c[nH]c3c(C)cccc23)NC(=O)[C@H]([C@@H](C)O)NC(=O)[C@H](CC(N)=O)NC(=O)[C@@H](NC(=O)[C@@H](CCCNC(=N)N)NC(C)=O)C(C)(C)SSC(C)(C)[C@@H](C(=O)N[C@@H](Cc2ccc(OCCN)cc2)C(=O)N[C@@H](Cc2ccc3ccccc3c2)C(=O)NC2(C(=O)N[C@@H](CCC(=O)O)C(=O)N[C@@H](CC(N)=O)C(=O)N[C@@H](Cc3cccnc3)C(=O)N(C)[C@H](Cc3ccc(O)cc3)C(N)=O)CCOCC2)NC1=O [compound 35, MeCO-r-Pen(3)-N-T-7MeW-K(Ac)-Pen(3)-AEF-2Nal-THp-E-N-3Pya-NMeDTyr-CONH2] (Ac-[dR][Pen]NT[Trp(7-Me)]K(Ac)[Pen][AEF][2Nal][Thp]EN[3Pal][dNMeY]-NH2; disulfide 2-7) | 8.47 | 184 | – | – |
| CC(=O)NCCCC[C@@H]1NC(=O)[C@H](Cc2c[nH]c3c(C)cccc23)NC(=O)[C@H]([C@@H](C)O)NC(=O)[C@H](CC(N)=O)NC(=O)[C@@H](NC(=O)[C@@H](CCCCNC(=O)CCOCCOCCOCCOCCOCCOCCNC(C)=O)NC(C)=O)C(C)(C)SSC(C)(C)[C@@H](C(=O)N[C@@H](Cc2ccc(OCCN)cc2)C(=O)N[C@@H](Cc2ccc3ccccc3c2)C(=O)NC2(C(=O)N[C@@H](CCCCNC(C)=O)C(=O)N[C@@H](CC(N)=O)C(=O)N[C@@H](Cc3cccnc3)C(=O)N(C)CC(N)=O)CCOCC2)NC1=O [compound 39] (Ac-[dK]([PEG6-Ac])[Pen]NT[Trp(7-Me)]K(Ac)[Pen][AEF][2Nal][Thp]K(Ac)N[3Pal][Sar]-NH2; disulfide 2-7 (inferred)) | 8.26 | 158 | – | – |
